Laboratory results as given in US20230286973A1, “PROTEIN SECRETION INHIBITORS” (KEZAR LIFE SCIENCES, priority 2020, published 2023).
Several values for one entry are separate records, joined by “and”; a condition that tells them apart may be missing. Equal values may be shown once. Read-outs that look alike come from different tables or passages of the source.

Legend:
[1] = tested on: PD1-ss+10aa/Gaussia Luciferase; experiment: Dox-Induced PD1-ss-Gluc Assay; assay type: cell-based; conditions: 24 hr Dox induction, 293FRT/TO cells, read-out: 24 hr Dox Inducible PD1ssGluc 293FRT/TO: Mean IC50
How it was run: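 Gaussia luciferase fused downstream of the PD1 signal peptide plus 10 residues was expressed on doxycycline induction in stably transfected Flp-In 293 T-REx cells. Compounds were added with doxycycline and incubated at 37 °C, 5% CO2.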

[2] = tested on: TNFα-FL/Gaussia Luciferase; experiment: Dox Induced TNFα-FL-Gluc Assay; assay type: cell-based; conditions: for IC50: 24 hr Dox induction, 293FRT/TO cells, read-out: 24 hr Dox Inducible TNFaFLGluc 293FRT/TO: Mean IC50; for 24 hr Dox Inducible TNFaFLGluc 293FRT/TO: TNF/PD1: ratio of TNFaFLGluc IC50 to PD1ssGluc IC50
How it was run: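 Cells are seeded one day ahead, then treated with compound plus doxycycline at 37 °C, 5% CO2. The stable Flp-In 293 T-REx line expresses full-length TNFα (amino acids 1-233) with Gaussia luciferase fused to its 3′ end, inducibly via T-REx.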

[3] = tested on: HER3-ss+4aa/Gaussia Luciferase; experiment: Dox-Induced Her3-ss-Gluc Assay; assay type: cell-based; conditions: 24 hr Dox induction, 293FRT/TO cells, read-out: 24 hr Dox Inducible Her3(ss + 4)Gluc 293FRT/TO: Mean IC50
How it was run: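 Expression of a Gaussia luciferase reporter carrying the HER3 signal sequence plus 4 amino acids is induced by doxycycline in stably transfected Flp-In 293 T-REx cells. Compounds are added with doxycycline at 37° C., 5% CO2. Undefined stereocentres denote stereoisomer mixtures.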

[4] = tested on: IL-2-FL/Gaussia Luciferase; experiment: Dox Induced IL2-FL-Gluc Assay; assay type: cell-based; conditions: for IC50: 24 hr Dox induction, 293FRT/TO cells, read-out: 24 hr Dox Inducible IL2FLGluc 293FRT/TO: Mean IC50; for 24 hr Dox Inducible IL2FLGluc 293FRT/TO: IL2/PD1: ratio of IL2FLGluc IC50 to PD1ssGluc IC50
How it was run: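 Reporter is Gaussia luciferase fused to the 3′ end of full-length IL-2 (aa 1-153), expressed from a doxycycline-inducible T-REx construct in stably selected Flp-In 293 cells. Compounds were co-added with doxycycline and incubated at 37° C, 5% CO2.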

[5] = tested on: multiple myeloma cell line NCI-H929; experiment: H929 Cell Viability Assay; assay type: cell-based, human; conditions: Homo sapiens, NCI-H929, 48 h, NCI-H929 cells, Celltiter-Glo
How it was run: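 Plate the myeloma cells in RPMI 1640 with 10% FBS, add serially diluted compound, incubate for 48 hours at 37° C, then add CellTiter-Glo and read luciferase signal.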

[6] = tested on: multiple myeloma cell line U266B1; experiment: U266 Cell Viability Assay; assay type: cell-based, human; conditions: Homo sapiens, U-266, 48 h, U266B1 cells, Celltiter-Glo
How it was run: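 48 h treatment, 37° C./5% CO2, RPMI 1640 + 10% FBS; viability by CellTiter-Glo luminescence.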

[7] = Liver Microsome Stability Assay (rat); conditions: rat liver microsomes, with NADPH, 1.0 uM compound
Method: (§1) Stability of a compound was assessed in the presence of liver microsomes from various sources—mouse, rat, monkey and human liver microsomes. 1.0 uM compound, 0.4% DMSO in 0.1 M Potassium Phosphate with 1.0 mg/mL liver microsomes, were incubated at 37° C. with or without 1 mM NADPH. The samples were quenched at 0, and 30 minutes.

[8] = Liver Microsome Stability Assay (mouse); conditions: mouse liver microsomes, with NADPH, 1.0 uM compound
Method: as §1

[9] = Liver Microsome Stability Assay (human); conditions: human liver microsomes, with NADPH, 1.0 uM compound
Method: as §1

[10] = Liver Microsome Stability Assay (monkey); conditions: monkey liver microsomes, with NADPH, 1.0 uM compound
Method: as §1

[11] = '<=>' given where both are I.A.

Row | Compound | IC50 ([1]; mean) [nM] | IC50 ([2]; mean) [nM] | 24 hr Dox Inducible TNFaFLGluc 293FRT/TO: TNF/PD1 [2, 11] | IC50 ([3]; mean) [nM] | IC50 ([4]; mean) [nM] | 24 hr Dox Inducible IL2FLGluc 293FRT/TO: IL2/PD1 [4, 11] | EC50 [5] [nM] | EC50 [6] [nM] | Liver Microsome Stability (Multiple Species): Rat - % Remaining after 30 min w/NADPH [7] | Liver Microsome Stability (Multiple Species): Mouse - % Remaining after 30 min w/NADPH [8] | Liver Microsome Stability (Multiple Species): Human - % Remaining after 30 min w/NADPH [9] | Liver Microsome Stability (Multiple Species): Monkey - % Remaining after 30 min w/NADPH [10] | IC50 [1] [nM] | IC50 [2] [nM] | 24 hr Dox Inducible TNFaFLGluc 293FRT/TO: TNF/PD1 [2] | IC50 [3] [nM] | IC50 [4] [nM] | 24 hr Dox Inducible IL2FLGluc 293FRT/TO: IL2/PD1 [4]
1 | N#CCCCn1cccc1C(=O)Nc1nc([C@H]2CCCN2c2ccccc2)cs1 [Compound C2, (R)-1-(3-cyanopropyl)-N-(4-(1-phenylpyrrolidin-2-yl)thiazol-2-yl)-1H-pyrrole-2-carboxamide] | 483 | 9740 | 20.2 | 1380 | 1520 | 3.1 | > 25000 | > 25000 | 17.6% | 18% | 33.9% | 0.23% | – | – | – | – | – | –
2 | CC(C)c1nc(/C=C/c2csc(NC(=O)c3cccn3Cc3ccncc3)n2)co1 [Compound B38, (E)-N-(4-(2-(2-isopropyloxazol-4-yl)vinyl)thiazol-2-yl)-1-(pyridin-4-ylmethyl)-1H-pyrrole-2-carboxamide] | – | – | – | – | – | – | 7560 | 8930 | 1.03% | 6.78% | 0.54% | 0.69% | 192 | 7050 | 36.6 | 1380 | 5590 | 29
3 | CN(C)c1ccc(N2CCC[C@@H]2c2csc(NC(=O)c3cccn3Cc3ccncc3)n2)cc1 [Compound A16, (R)-N-(4-(1-(4-(dimethylamino)phenyl)pyrrolidin-2-yl)thiazol-2-yl)-1-(pyridin-4-ylmethyl)-1H-pyrrole-2-carboxamide] | – | – | – | – | – | – | 119 | 2140 | 0.15% | 0.26% | 0.34% | 0.17% | 5.06 | 127 | 25 | 8.37 | 10.6 | 2.1
4 | Cc1cn(C(C)C)nc1/C=C/c1csc(NC(=O)c2cccn2Cc2ccnc(F)c2)n1 [Compound B83, (E)-1-((2-fluoropyridin-4-yl)methyl)-N-(4-(2-(1-isopropyl-4-methyl-1H-pyrazol-3-yl)vinyl)thiazol-2-yl)-1H-pyrrole-2-carboxamide] | – | – | – | – | – | – | 11300 | 15300 | 6.87% and 5.01% | 11.1% and 10.1% | 2.94% and 2.65% | 0.25% and 0.24% | 320 | 11700 | 36.6 | 1960 | 3230 | 10
5 | Cc1ccc(S(=O)(=O)N(C(=O)c2cccn2Cc2ccncc2)c2nc([C@H]3CCCN3S(=O)(=O)c3ccc(C)cc3)cs2)cc1 [Compound E52, (R)-1-(pyridin-4-ylmethyl)-N-tosyl-N-(4-(1-tosylpyrrolidin-2-yl)thiazol-2-yl)-1H-pyrrole-2-carboxamide] | > 25000 | > 25000 | – | > 25000 | > 25000 | 1 | > 25000 | > 25000 | 9.09% | 1.28% | 0.44% | 0.32% | – | – | – | – | – | –
6 | NC(=O)c1ccc(N2CCC[C@@H]2c2csc(NC(=O)c3cccn3Cc3ccncc3)n2)cc1 [Compound A19] | – | – | – | – | – | – | 219 | > 25000 | 0.39% | 3.24% | 0.48% | 0.17% | 2.46 | 45.3 | 18.4 | 5.66 | 9.11 | 3.7
7 | O=C(Nc1nc(/C=C/c2cn(C3CCCCC3)cn2)cs1)c1cccn1Cc1ccnc(F)c1 [Compound B55, (E)-N-(4-(2-(1-cyclohexyl-1H-imidazol-4-yl)vinyl)thiazol-2-yl)-1-((2-fluoropyridin-4-yl)methyl)-1H-pyrrole-2-carboxamide] | – | – | – | – | – | – | > 20800 | > 25000 | 0.3% | 1.7% | 0.41% | 0.4% | 25.3 | 6620 | 262 | 1170 | 2010 | 79
8 | O=C(Nc1nc([C@H]2CCCN2c2ccc(Br)cc2)cs1)c1cccn1Cc1ccnc(F)c1 [Compound A116] | – | – | – | – | – | – | 160 | > 25000 | 37.7% | 60.7% | 45.3% | 18.9% | 2 | 39.5 | 19.7 | 4.14 | 4.93 | 2.5
